The record followed here is patent US5955440A, “Macrolide LHRH antagonists” (Abbott Laboratories, priority 1998, dated 1999).

Where a name gives a salt, the structure may show the parent alone.

The target in this test is T1, LHRH rat pituitary receptor (Rattus norvegicus, UniProt P30969).
T1 construct: from tissue; host or cells: rat pituitary
T1 sequence (P30969 1-327): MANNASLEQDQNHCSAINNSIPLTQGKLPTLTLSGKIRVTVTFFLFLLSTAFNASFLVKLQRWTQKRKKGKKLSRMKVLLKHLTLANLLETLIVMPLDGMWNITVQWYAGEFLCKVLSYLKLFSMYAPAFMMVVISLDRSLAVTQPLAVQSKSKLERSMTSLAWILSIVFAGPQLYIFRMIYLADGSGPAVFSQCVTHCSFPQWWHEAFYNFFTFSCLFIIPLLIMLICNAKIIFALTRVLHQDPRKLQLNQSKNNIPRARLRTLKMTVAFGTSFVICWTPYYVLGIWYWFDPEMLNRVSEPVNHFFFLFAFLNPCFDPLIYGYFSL
Nature of the test: LHRH rat pituitary receptor binding (pKI). The following applies: negative logarithm of the equilibrium dissociation constants; for receptor binding affinity (pKI): Table 1; for Ki: Table 1, read-out: receptor binding affinity (pKI) (converted). On the procedure:
Representative compounds of the present invention were evaluated in in vitro tests for LHRH rat pituitary receptor binding (pKI) and for LH inhibition from rat pituitary cells for antagonist potency (pA2). The tests employed the methods detailed in F. Haviv, et al. J. Med. Chem., 32: 2340-2344 (1989). The receptor binding affinity (pKI) is the negative logarithm of the equilibrium dissociation constants.

“3'-N-Desmethyl-3'-N-[3-(3-pyridyl)propyl]-11-deoxy-11-[carboxy-(3,4-dichlorophenethylamino)]-6-O-methyl-erythromycin A 11,12-(cyclic carbamate) [Example 79]”: the “receptor binding affinity (pKI)” value amounted to 8.11. As for `CC[C@H]1OC(=O)[C@H](C)[C@@H](O[C@H]2C[C@@](C)(OC)[C@@H](O)[C@H](C)O2)[C@H](C)[C@@H](O[C@@H]2O[C@H](C)C[C@H](N(C)C3CC3)[C@H]2O)[C@](C)(OC)C[C@@H](C)C(=O)[C@H](C)[C@H]2N(CCc3ccc(Cl)c(Cl)c3)C(=O)O[C@]12C` [Example 2, 3'-N-Desmethyl-3'-N-cyclopropyl-11-deoxy-11-[carboxy-(3,4-dichlorophenethylamino)]-6-O-methyl-erythromycin A 11,12-(cyclic carbamate)], the Ki is 0.575 nM. Consider `CC[C@H]1OC(=O)[C@H](C)[C@@H](O[C@H]2C[C@@](C)(OC)[C@@H](O)[C@H](C)O2)[C@H](C)[C@@H](O[C@@H]2O[C@H](C)C[C@H](N(C)C3CCC3)[C@H]2O)[C@](C)(OC)C[C@@H](C)C(=O)[C@H](C)[C@H]2N(CCc3ccc(Cl)c(Cl)c3)C(=O)O[C@]12C` [Example 4, 3'-N-Desmethyl-3'-N-cyclobutyl-11-deoxy-11-[carboxy-(3,4-dichlorophenethylamino)]-6-O-methyl-erythromycin A 11,12-(cyclic carbamate) hydrochloride], for which the Ki is 3.24 nM. Take `CC[C@H]1OC(=O)[C@H](C)[C@@H](O[C@H]2C[C@@](C)(OC)[C@@H](O)[C@H](C)O2)[C@H](C)[C@@H](O[C@@H]2O[C@H](C)C[C@H](N(C)C3CCCCC3)[C@H]2O)[C@](C)(OC)C[C@@H](C)C(=O)[C@H](C)[C@H]2N(CCc3ccc(Cl)c(Cl)c3)C(=O)O[C@]12C` [Example 5, 3'-N-Desmethyl-3'-N-cyclohexyl-11-deoxy-11-[carboxy-(3,4-dichlorophenethylamino)]-6-O-methyl-erythromycin A 11,12-(cyclic carbamate)]: the Ki is 3.63 nM.

For `CC[C@H]1OC(=O)[C@H](C)[C@@H](O[C@H]2C[C@@](C)(OC)[C@@H](O)[C@H](C)O2)[C@H](C)[C@@H](O[C@@H]2O[C@H](C)C[C@H](N(C)CCC(C)C)[C@H]2O)[C@](C)(OC)C[C@@H](C)C(=O)[C@H](C)[C@H]2N(CCc3ccc(Cl)c(Cl)c3)C(=O)O[C@]12C` [Example 6], the Ki is 8.13 nM.

On to `CC[C@H]1OC(=O)[C@H](C)[C@@H](O[C@H]2C[C@@](C)(OC)[C@@H](O)[C@H](C)O2)[C@H](C)[C@@H](O[C@@H]2O[C@H](C)C[C@H](N(C)CCCSC)[C@H]2O)[C@](C)(OC)C[C@@H](C)C(=O)[C@H](C)[C@H]2N(CCc3ccc(Cl)c(Cl)c3)C(=O)O[C@]12C` [Example 7, 3'-N-Desmethyl-3'-N-(3-methylthiopropyl)-11-deoxy-11-[carboxy-(3,4-dichlorophenethylamino)]-6-O-methyl-erythromycin A 11,12-(cyclic carbamate)], for which the Ki is 4.68 nM. For the compound `CC[C@H]1OC(=O)[C@H](C)[C@@H](O[C@H]2C[C@@](C)(OC)[C@@H](O)[C@H](C)O2)[C@H](C)[C@@H](O[C@@H]2O[C@H](C)C[C@H](N(C)C3CCSC3)[C@H]2O)[C@](C)(OC)C[C@@H](C)C(=O)[C@H](C)[C@H]2N(CCc3ccc(Cl)c(Cl)c3)C(=O)O[C@]12C` (some centres unmarked) [Example 8, 3'-N-Desmethyl-3'-N-(3-tetrahydrothienyl)-11-deoxy-11-[carboxy-(3,4-dichlorophenethylamino)]-6-O-methyl-erythromycin A 11,12-(cyclic carbamate)], the Ki was 7.41 nM. Turning to `CC[C@H]1OC(=O)[C@H](C)[C@@H](O[C@H]2C[C@@](C)(OC)[C@@H](O)[C@H](C)O2)[C@H](C)[C@@H](O[C@@H]2O[C@H](C)C[C@H](N(C)C3CC(C)C(C)C3)[C@H]2O)[C@](C)(OC)C[C@@H](C)C(=O)[C@H](C)[C@H]2N(CCc3ccc(Cl)c(Cl)c3)C(=O)O[C@]12C` (some centres unmarked) [Example 9, 3'-N-Desmethyl-3'-N-(3,4-dimethylcyclopentyl)-11-deoxy-11-[carboxy-(3,4-dichlorophenethylamino)]-6-O-methyl-erythromycin A 11,12-(cyclic carbamate)], the “receptor binding affinity (pKI)” value was determined as 8.36.
